Experimental data taken from patent US20110263527A1, “Sulfated Galactans With Antithrombotic Activity, Pharmaceutical Composition, Method for Treating or Prophylaxis of Arterial or Venous Thrombosis, Method of Extraction and Use Thereof” (priority 2008, published 2011).

What was measured:
[1] = biological target: T1, factor XII (Homo sapiens, UniProt P00748); assay: Activation of factor XII in human plasma in the presence of sulfated polysaccharides; type: biochemical; conditions: chromogenic substrate S-2302, FIG. 4
T1 construct: from tissue; host or cells: citrated human plasma
T1 sequence (P00748 20-615): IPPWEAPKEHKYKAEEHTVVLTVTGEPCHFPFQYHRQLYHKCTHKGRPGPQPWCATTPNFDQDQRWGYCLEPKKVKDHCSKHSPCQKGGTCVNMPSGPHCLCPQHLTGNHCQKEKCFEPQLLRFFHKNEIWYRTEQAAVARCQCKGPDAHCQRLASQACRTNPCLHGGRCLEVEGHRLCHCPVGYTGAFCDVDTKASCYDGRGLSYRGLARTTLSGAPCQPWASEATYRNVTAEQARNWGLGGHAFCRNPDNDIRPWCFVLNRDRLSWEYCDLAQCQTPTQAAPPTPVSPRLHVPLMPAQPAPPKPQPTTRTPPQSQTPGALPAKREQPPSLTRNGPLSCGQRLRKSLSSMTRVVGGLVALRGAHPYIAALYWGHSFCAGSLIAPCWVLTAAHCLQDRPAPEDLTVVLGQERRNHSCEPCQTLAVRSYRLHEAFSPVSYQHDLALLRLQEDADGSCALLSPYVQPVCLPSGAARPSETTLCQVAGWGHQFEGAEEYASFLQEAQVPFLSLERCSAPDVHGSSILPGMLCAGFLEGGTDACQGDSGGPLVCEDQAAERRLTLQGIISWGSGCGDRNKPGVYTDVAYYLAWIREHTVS
Description: FIG. 4 refers to the factor XII activation in human plasma incubated with non-fractionated heparin (□), native sulfated galactans (▴), ˜14 kDa fragment (◯) and a ˜5 kDa fragment ([…]). After 60 seconds of incubation at 37° C., 0.3 mM of chromogenic substrate for plasma calicrein was added. The increase in absorbance at 405 nm was expressed in milli OD/min (mean±standard error of the mean (SEM), n=3).
h) Activation of Factor XII in the Presence of Sulfated Polysaccharides
The assays for activation of factor XII were performed on plates of 96 wells. Citrated human plasma was diluted with 3 volumes of TS buffer and samples (40 μL) were incubated with different concentrations of sulfated polysaccharides (30 μL). After incubation at 37° C. for 60 seconds, were added 30 μL of chromogenic substrate (S-2302, 0.3 mM) (Chromogenix AB, Mondal, Sweden) and absorbance at 405 nm for 300 seconds was recorded. S-2302 is a chromogenic substrate for plasma calicrein activated by its precalicrein precursor through the action of activated factor XII. The method for determining the activity of factor XIIa is based on difference in absorbance between formed p-nitroanilide and original substrate. The formation rate of p-nitroanilide, i.e., the increase in absorbance at 405 nm, is proportional to enzyme activity. No activation occurred in control experiments in the absence of sulfated polysaccharide.

[2] = International Standard (85/600); cited from earlier work
[3] = test system: bleeding; set-up: species or system Wistar rats; conditions: rat, in vivo
Description: FIG. 6 refers to the effect on bleeding. Non-fractionated heparin (□), low molecular weight heparin (▪), native sulfated galactans (▴), and ˜5 kDa fragment ([…]) were infused into rats. After 5 minutes, the rats' tails were cut 3 mm from the tip and immersed in 40 mL of distilled water at room temperature. The loss of blood was determined after 60 minutes through the measure of hemoglobin in water. The results were expressed in μL of loss blood (mean±standard error of the mean (SEM), n=4). For clarity purposes only one SEM bar is shown for each point.
Wistar rats (both sexes, body weight ˜250 g) were anesthetized with a mixture of ketamine and xylazine, as previously described. The right carotid artery was cannulated and different polysaccharides doses were infused and allowed to circulate for 5 minutes. The rats tail was cut 3 mm from the tip and immersed in 40 mL of distilled water at room temperature. After 60 minutes, blood loss was determined by measuring the hemoglobin in water by using a spectrophotometric method (Zancan P, Mourão P A S. Venous and arterial thrombosis in rat models: dissociation of the antithrombotic effects of giycosaminoglycans. Blood Coagul Fibrin 2004; 15: 45-54). The blood volume was drawn from a standard curve based on absorbance at 540 nm.

[4] = biological target: T2, factor Xa (antithrombin-mediated inactivation) (Homo sapiens, UniProt P00742+P01008); assay: Factor Xa inhibition by antithrombin in the presence of sulfated polysaccharides; type: biochemical; conditions: antithrombin 10 nM, factor Xa 2 nM, FIG. 2B
T2 construct: thrombin or factor Xa 2 nM (Haematologic Technologies Inc., Vermont, USA); purchased Haematologic Technologies Inc., Vermont, USA
T2 sequence (P00742 41-179 limits assumed): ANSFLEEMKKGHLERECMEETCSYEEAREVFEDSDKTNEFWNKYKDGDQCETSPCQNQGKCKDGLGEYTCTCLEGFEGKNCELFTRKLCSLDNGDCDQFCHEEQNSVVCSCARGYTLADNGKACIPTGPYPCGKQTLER
T2 sequence (P00742 235-488 limits assumed): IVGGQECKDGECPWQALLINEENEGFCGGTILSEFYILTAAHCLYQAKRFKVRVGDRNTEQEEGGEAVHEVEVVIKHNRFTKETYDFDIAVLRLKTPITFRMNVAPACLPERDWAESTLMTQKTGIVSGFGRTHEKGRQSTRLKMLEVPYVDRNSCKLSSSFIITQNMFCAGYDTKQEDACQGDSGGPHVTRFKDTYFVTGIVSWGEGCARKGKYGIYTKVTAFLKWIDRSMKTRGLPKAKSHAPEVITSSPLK
T2 sequence (P01008 33-464): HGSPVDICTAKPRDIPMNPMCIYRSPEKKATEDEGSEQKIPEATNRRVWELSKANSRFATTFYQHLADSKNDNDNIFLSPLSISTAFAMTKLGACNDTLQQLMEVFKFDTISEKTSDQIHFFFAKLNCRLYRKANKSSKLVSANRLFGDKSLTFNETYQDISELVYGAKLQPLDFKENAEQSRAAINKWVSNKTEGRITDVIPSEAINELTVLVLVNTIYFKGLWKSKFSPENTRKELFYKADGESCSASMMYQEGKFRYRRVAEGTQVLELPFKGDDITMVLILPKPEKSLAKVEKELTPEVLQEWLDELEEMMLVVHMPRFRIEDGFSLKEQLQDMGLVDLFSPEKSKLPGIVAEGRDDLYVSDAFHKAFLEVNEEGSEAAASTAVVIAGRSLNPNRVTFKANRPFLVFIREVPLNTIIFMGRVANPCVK
Description: (§1) Antithrombin (10 nM) or of heparin cofactor II (15 nM) were incubated with thrombin (2 nM) or factor Xa (2 nM) in the presence of various concentrations of non-fractionated heparin (□), low molecular weight heparin (▪), native sulfated galactans (▴), ˜14 kDa fragment (◯) and a ˜5 kDa fragment ([…]). After 60 seconds, the amidolytic thrombin activity and factor Xa were determined with a chromogenic substrate specific for each protease ([…]) [mean±standard error of the mean (SEM), n=3]. No inhibition was observed when thrombin or factor Xa was incubated with sulfated polysaccharide alone over the same range of tested concentrations.
(§2) g) Thrombin Inhibition or Factor Xa by Antithrombin and Heparin Cofactor II in the Presence of Sulfated Polysaccharides
(§3) The incubations were performed on plates of 96 wells. […] After 60 seconds at 37° C., were added 25 μL chromogenic substrate (S-2238 for thrombin or S-2222 for factor Xa) (Chromogenix AB, Mondal, Sweden), and was recorded absorbance at 405 nm for 120 seconds. The rate of absorbance change was proportional to the activity of thrombin or factor Xa remaining in the incubation. […]

[5] = biological target: T3, thrombin (heparin cofactor II-mediated inactivation) (Homo sapiens, UniProt P00734+P05546); assay: Thrombin inhibition by heparin cofactor II in the presence of sulfated polysaccharides; type: biochemical; conditions: heparin cofactor II 15 nM, thrombin 2 nM, FIG. 2C
T3 construct: purchased Haematologic Technologies Inc., Vermont, USA
Description: as §1, §2, §3

[6] = biological target: T4, thrombin (antithrombin-mediated inactivation) (Homo sapiens, UniProt P00734+P01008); assay: Thrombin inhibition by antithrombin in the presence of sulfated polysaccharides; type: biochemical; conditions: antithrombin 10 nM, thrombin 2 nM, FIG. 2A
T4 construct: purchased Haematologic Technologies Inc., Vermont, USA
Description: as §1, §2, §3

[7] = test system: venous thrombosis; assay: Venous thrombosis model (vena cava, thromboplastin and stasis); type: in vivo, Wistar rats; conditions: 1.00 mg/kg; FIGS. 3A and 3B
Description: Assays were performed in rats with different doses of non-fractionated heparin (□), low molecular weight heparin (▪), native sulfated galactans (▴), ˜14 kDa fragment (◯) and a ˜5 kDa fragment ([…]) (mean±standard error of the mean (SEM), n=3). Thrombosis induced model (A and B) in the rats' vena cava. The mean weight of the thrombus for each dose was expressed as a percentage of weight in the absence of polysaccharide, (C) Thrombosis in the arteriovenous shunt model. The mean weight of the thrombus for each dose was expressed as a percentage of the weight of thrombus in the absence of polysaccharide, (D) laser irradiation induced arterial thrombosis model in the carotid artery. Results were expressed as the mean time to complete occlusion of the artery.
The antithrombotic activity in rats was investigated using rabbit brain thromboplastin with thrombogenic stimulus. We followed the guidelines for institutional animal care and experimentation. Wistar rats (both sexes, body weight of ˜250 g) were anesthetized with a mixture of ketamine and xylazine, as already described. […] A 0.7 cm segment was prepared starting just below the branching of the right renal vein and extending until after the left renal vein which was linked. Different doses of sulfated polysaccharides were intravenously administered 1 cm below the distal lost suture and moved left for 5 minutes. […]

factor XII activation [1]	effect on bleeding (hemorrhagic effect, bleeding time) [3]	inactivation of factor Xa by antithrombin [4]	inactivation of thrombin by heparin cofactor II [5]	inactivation of thrombin by antithrombin [6]	Substance	activity of the standard [2] [IU/mg]	antithrombotic activity [7]
activates factor XII	–	–	–	–	dextran sulfate	–	–
–	had no effect	more active than ˜5 kDa fragment	more active than ˜5 kDa fragment	more active than ˜5 kDa fragment	low molecular weight heparin	66	approximately 70%
